Source: PubChem BioAssay AID248 (DTP/NCI, 2004)
Values joined by “and” are separate entries in the source; they are usually repeats but may differ in a detail not shown here. Equal values may be shown once. Toxic doses and inconclusive results are not listed. Rule as the data show it: active = T/C of 150% or more; inactive = T/C below 125%.

System: L1210 leukemia ip in BDF1 mice, survival T/C
Assay: NCI In Vivo Anticancer Drug Screen. Data for tumor model L1210 Leukemia (intraperitoneal) in B6D2F1 (BDF1) mice
Details: endpoint: mean survival time, higher = longer survival
Method in brief: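 Ratio derived from survival: compound-dosed mice over vehicle-dosed mice, all bearing a transplantable tumor.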

[1] = dose: 100.0 mg/kg/injection, schedule: Q01DX009 (ip), vehicle: Klucel (hydroxypropylcellulose) (HPC)
[2] = dose: 200.0 mg/kg/injection, schedule: Q01DX009 (ip), vehicle: Klucel (hydroxypropylcellulose) (HPC)
[3] = dose: 400.0 mg/kg/injection, schedule: Q01DX009 (ip), vehicle: Klucel (hydroxypropylcellulose) (HPC)
[4] = dose: 100.0 mg/kg/injection, schedule: Q01DX001 (ip), vehicle: saline
[5] = dose: 200.0 mg/kg/injection, schedule: Q01DX001 (ip), vehicle: saline
[6] = dose: 400.0 mg/kg/injection, schedule: Q01DX001 (ip), vehicle: saline
[7] = dose: 100.0 mg/kg/injection, schedule: Q01DX001 (ip), vehicle: Klucel (hydroxypropylcellulose) (HPC)
[8] = dose: 100.0 mg/kg/injection, schedule: Q04DX003 (ip), vehicle: Klucel (hydroxypropylcellulose) (HPC)
[9] = dose: 200.0 mg/kg/injection, schedule: Q04DX003 (ip), vehicle: Klucel (hydroxypropylcellulose) (HPC)
[10] = dose: 6.25 mg/kg/injection, schedule: Q01DX009 (ip), vehicle: saline with Tween-80
[11] = dose: 25.0 mg/kg/injection, schedule: Q04DX003 (ip), vehicle: saline with Tween-80
[12] = dose: 25.0 mg/kg/injection, schedule: Q04DX003 (ip), vehicle: saline
[13] = dose: 50.0 mg/kg/injection, schedule: Q04DX003 (ip), vehicle: saline
[14] = dose: 100.0 mg/kg/injection, schedule: Q04DX003 (ip), vehicle: saline

Measured: T/C

O=C(Nc1ccccc1Cl)OCCOc1ccccc1
inactive: [1] 97 % of control | [2] 97 % of control | [3] 94 % of control

O=C(CCCC(=O)N/N=C/c1ccccc1C(=O)O)N/N=C\c1ccccc1C(=O)O
inactive: dose: 50.0 mg/kg/injection, schedule: Q01DX001 (ip), vehicle: saline 104 % of control | [4] 102 % of control | [5] 102 % of control | [6] 98 % of control

C[P+]1(CCc2ccc(Cl)cc2)CC(Br)C(Br)C1 (stereo unspecified)
inactive: [7] 104 % of control

CCOC1C(Br)=Cc2ccccc2N1C(=O)OC (stereo unspecified)
inactive: [7] 101 % of control | dose: 200.0 mg/kg/injection, schedule: Q01DX001 (ip), vehicle: Klucel (hydroxypropylcellulose) (HPC) 97 % of control | dose: 400.0 mg/kg/injection, schedule: Q01DX001 (ip), vehicle: Klucel (hydroxypropylcellulose) (HPC) 101 % of control

Cc1c(C(=O)CCl)c(=O)n(-c2ccccc2)n1C
inactive: dose: 50.0 mg/kg/injection, schedule: Q01DX009 (ip), vehicle: Klucel (hydroxypropylcellulose) (HPC) 100 % of control | [1] 100 % of control | [8] 95 % of control | [9] 101 % of control

CC1=C2CC[C@H]3[C@@H]4CC[C@H](O)[C@@]4(C)CC[C@@H]3[C@@]2(C)CCC1=O
inactive: dose: 100.0 mg/kg/injection, schedule: Q01DX001 (sc), vehicle: steriod suspending solution 98 % of control | dose: 200.0 mg/kg/injection, schedule: Q01DX001 (sc), vehicle: steriod suspending solution 98 % of control | dose: 400.0 mg/kg/injection, schedule: Q01DX001 (sc), vehicle: steriod suspending solution 96 % of control | dose: 800.0 mg/kg/injection, schedule: Q01DX001 (sc), vehicle: steriod suspending solution 96 % of control

COc1cc(NCCCNc2c3ccc(Cl)cc3nc3ccc(OC)cc23)c2ncccc2c1
inactive: [1] 100 % of control

Cc1ccc(NP(N)(=O)Nc2ccc(C)cc2)cc1
inactive: dose: 50.0 mg/kg/injection, schedule: Q01DX001 (ip), vehicle: alcohol 102 % of control | dose: 100.0 mg/kg/injection, schedule: Q01DX001 (ip), vehicle: alcohol 102 % of control | dose: 200.0 mg/kg/injection, schedule: Q01DX001 (ip), vehicle: alcohol 108 % of control | dose: 400.0 mg/kg/injection, schedule: Q01DX001 (ip), vehicle: alcohol 96 % of control

CCN(C(=O)COc1ccc(Cl)cc1)c1ccccc1C
inactive: [1] 102 % of control | [8] 101 % of control | [2] 107 % of control | [9] 97 % of control | [3] 116 % of control | dose: 400.0 mg/kg/injection, schedule: Q04DX003 (ip), vehicle: Klucel (hydroxypropylcellulose) (HPC) 98 % of control

O=C(C#Cc1ccccc1)OCC#Cc1ccccc1
inactive: [4] 102 % of control | [5] 96 % of control | [6] 94 % of control

C=CCSCCC=O
inactive: dose: 25.0 mg/kg/injection, schedule: Q01DX001 (ip), vehicle: Klucel (hydroxypropylcellulose) (HPC) 100 % of control | dose: 50.0 mg/kg/injection, schedule: Q01DX001 (ip), vehicle: Klucel (hydroxypropylcellulose) (HPC) 102 % of control | [7] 102 % of control

CN(C)CC/C=C1\c2ccccc2CN(C)c2ccccc21
inactive: [10] 94 % of control | dose: 6.25 mg/kg/injection, schedule: Q01DX009 (ip), vehicle: saline 108 % of control | dose: 12.5 mg/kg/injection, schedule: Q01DX009 (ip), vehicle: saline with Tween-80 104 % of control | dose: 12.5 mg/kg/injection, schedule: Q01DX009 (ip), vehicle: saline 107 % of control | dose: 25.0 mg/kg/injection, schedule: Q01DX009 (ip), vehicle: saline with Tween-80 88 % of control | dose: 25.0 mg/kg/injection, schedule: Q01DX009 (ip), vehicle: saline 94 % of control | [11] 88 % of control | [12] 97 % of control | dose: 50.0 mg/kg/injection, schedule: Q01DX009 (ip), vehicle: saline 94 % of control | dose: 50.0 mg/kg/injection, schedule: Q04DX003 (ip), vehicle: saline with Tween-80 96 % of control | [13] 97 % of control | dose: 100.0 mg/kg/injection, schedule: Q01DX009 (ip), vehicle: saline 105 % of control | dose: 100.0 mg/kg/injection, schedule: Q04DX003 (ip), vehicle: saline with Tween-80 94 % of control | [14] 101 % of control

COc1cccc(C)c1NC1=NCCO1
inactive: dose: 1.56 mg/kg/injection, schedule: Q01DX009 (ip), vehicle: saline with Tween-80 97 % of control | dose: 1.56 mg/kg/injection, schedule: Q04DX003 (ip), vehicle: saline with Tween-80 97 % of control | dose: 3.13 mg/kg/injection, schedule: Q01DX009 (ip), vehicle: saline with Tween-80 116 % of control | dose: 3.13 mg/kg/injection, schedule: Q04DX003 (ip), vehicle: saline with Tween-80 100 % of control | [10] 101 % of control | dose: 6.25 mg/kg/injection, schedule: Q04DX003 (ip), vehicle: saline with Tween-80 100 % of control and 101 % of control | [11] 96 % of control

Nc1cccc(CCCCc2ccc(S(=O)(=O)F)cc2)c1
inactive: [4] 101 % of control | [5] 95 % of control | [6] 98 % of control

CCC(=O)c1ccc(O)c(C)c1
inactive: dose: 55.5 mg/kg/injection, schedule: Q01DX Z (ip), vehicle: methylcellulose (MC) 98 % of control | dose: 83.3 mg/kg/injection, schedule: Q01DX Z (ip), vehicle: methylcellulose (MC) 96 % of control | dose: 125.0 mg/kg/injection, schedule: Q01DX Z (ip), vehicle: methylcellulose (MC) 102 % of control | dose: 187.5 mg/kg/injection, schedule: Q01DX Z (ip), vehicle: methylcellulose (MC) 103 % of control

CCOC(=O)c1cc(C(=O)OCC)c[n+](CCCl)c1
inactive: dose: 8.0 mg/kg/injection, schedule: Q01DX010 (ip), vehicle: other 104 % of control | dose: 16.0 mg/kg/injection, schedule: Q01DX010 (ip), vehicle: other 104 % of control | dose: 32.0 mg/kg/injection, schedule: Q01DX010 (ip), vehicle: other 111 % of control | dose: 64.0 mg/kg/injection, schedule: Q01DX010 (ip), vehicle: other 109 % of control | dose: 64.0 mg/kg/injection, schedule: Q01DX Z (ip), vehicle: other 105 % of control

O=C1NC(=O)C(CO)(c2ccccc2)N1 (stereo unspecified)
inactive: dose: 12.5 mg/kg/injection, schedule: Q04DX003 (ip), vehicle: saline 110 % of control | [12] 103 % of control | [13] 100 % of control | [14] 94 % of control | dose: 200.0 mg/kg/injection, schedule: Q04DX003 (ip), vehicle: saline 97 % of control | dose: 400.0 mg/kg/injection, schedule: Q04DX003 (ip), vehicle: saline 100 % of control

CCOC(=O)C(=CNc1ccc(Cl)cc1Cl)C(=O)OCC
inactive: dose: 100.0 mg/kg/injection, schedule: Q01DX001 (ip), vehicle: other 93 % of control | dose: 200.0 mg/kg/injection, schedule: Q01DX001 (ip), vehicle: other 101 % of control | dose: 400.0 mg/kg/injection, schedule: Q01DX001 (ip), vehicle: other 101 % of control

CCOc1cccc(CCC(=O)O)c1
inactive: dose: 100.0 mg/kg/injection, schedule: Q04DX003 (ip), vehicle: gum acacia 105 % of control | dose: 200.0 mg/kg/injection, schedule: Q04DX003 (ip), vehicle: gum acacia 96 % of control | dose: 400.0 mg/kg/injection, schedule: Q04DX003 (ip), vehicle: gum acacia 93 % of control
